Laboratory results: US10660934B2, “Neuroprotective peptide” (SENJU PHARMACEUTICAL CO., LTD., priority 2016, dated 2020)
Where no end group is shown, it is not given here.

How the values were obtained:
[1] = system: rat retinal ganglion cells (RGC); test: Hypoxia-induced cell death assay in rat retinal ganglion cells (Calcein-AM/Ethidium homodimer); format: cell-based; conditions: for Rate of cell-death suppression (%): 24 hours hypoxia
Description: Retinal ganglion cells were isolated by a magnetic activated cell sorting method (MACS). Retinas were harvested from neonatal rats (Slc: Sprague-Dawley, 7-day old) and the tissue was dissociated using a Neural Tissue Dissociation Kit (Miltenyi Biotec, 130-094-802). Then, using a Retinal Ganglion Cell Isolation Kit (Miltenyi Biotec, 130-096-209), the endothelial cells and microglia were removed, and a positive selection for CD90.1^+ RGC was carried out by means of CD90.1MicroBeads. The test was carried out with the approval of the Animal Test Ethics Committee based on the Act on Welfare and Management of Animals (Act number 105 of Oct. 1, 1973, last revision: Act number 38 of Jun. 12, 2013), etc. 2. Cell Culture
After suspending the isolated RGC in a neurobasal medium (Gibco Corporation, 12348-017) containing a B27 supplement (Invitrogen, 0080085-SA), 1 mM of L-glutamine (Gibco, 25030), 50 ng/ml of BDNF (Peprotech, 25-02), 50 ng/ml of CNTF (Peprotech, 450-50) and 5 μm of Forskolin. (Sigma, F6886), they were seeded on a 96-well plate (Corning, 354596), ‘which’ was coated with poly-D-lysine/laminin, at a density of 5×10^3 cells/100 μl/well, and incubated at 37° C. and 5% CO2 for three days.
After having replaced the media with neurobasal media comprising a B27 supplement, 1 mM of L-glutamine […] and each peptide, a hypoxia state (O2 concentration of 0.1% or less) was induced by putting the plate in an Anaero Pack rectangular jar with Anaero Pack Kenki 5% (Mitsubishi Gas Chemical Company, Inc., A-07) with hermetically sealing, and incubating at 37° C. After incubating for 24 hours under hypoxia condition, Calcein-AM and Ethidium homodimer (Invitrogen, L3224) were added to the media. As a result of staining the cells, it was possible to distinguish between the viable cells and the dead cells. The number of viable cells and dead cells were measured using an Image Pro plus, and the rate of viability was given as “the proportion of the viable cell count relative to the total cell count.” 4. Test Results
The isolation and incubation of RGC were performed by the same methods as for Test Example 3-1, and 2.
Commercially available PRP4 (Abnova, H0011272-Q01) having the sequence of SEQ ID NO: 2, was used for Peptide 5. The evaluation of Peptide 5 was carried out by the same evaluation method as used for Test Example 3-3.

SH-SY5Y cells = test: Hypoxia-induced cell death assay in human neuroblastoma SH-SY5Y cells (LDH); format: cell-based; conditions: 100 nM, 24 hours hypoxia (O2 0.1% or less), glucose-free DMEM, mean ± standard error (n = 3)
Description: SH-SY5Y cells (ATCC) were sustainably cultured in a DMEM/F12 medium (Invitrogen, 11330-032) supplemented with a 10% serum (Invitrogen, 10062-147) under the condition of 37° C. and 5% CO2.
The cells were seeded on a 96-well plate (Iwaki, 3860-096) at a density of 2×10^4 cells/100 μl/well. The following day the medium was replaced with a DMEM/F12 medium comprising a 1% serum and 10 μM of a retinoic acid (Wako, 302-79-4) and differentiated by incubation for 2 days. After replacing the medium with a glucose-free DMEM medium supplemented with 100 nM of Peptide 1, a hypoxia state (O2 concentration of 0.1% or less) was induced by putting the plate in an Anaero Pack rectangular jar with Anaero Pack Kenki 5% (Mitsubishi Gas Chemical Company, Inc., A-07) with hermetically sealing, and culturing at 37° C. Alter culturing for 24 hours in the hypoxia state, the cell-death inhibiting rate by the peptide was calculated by measuring the amount of LDH in the cells and the medium, using an LDH cytotoxicity detection kit (Takara, MK401). Moreover, 100 nM of an IGF-1 was used as a positive control in the experiment IGF-1 has a protective effect against nerve cell death (Mol. Cell Neurosci, 2011, 47 (3), 181-190). 3. Test Results

[2] = Stability in a vitreous humor solution; format: in vitro ADME, rabbit
Description: (Two) rabbits were euthanized by intravenous administration of 5 ml of a pentobarbital sodium solution, and then their eyeballs were removed. An incision was made in the equatorial region of each eyeball and the vitreous humor-solution was harvested from each eyeball using a syringe (18G injection needle) at the site of incision. The mixed vitreous humor solution was filtered with a cell strainer (40 μm) and the filtrate was used as the vitreous humor solution for the stability tests. 600 μl of the vitreous humor solution was mixed with 1.2 μl of a Primocin at a concentration of 50 mg/ml and the resultant solution was used as sample solution. 270 μl of the sample solution and […] in a 30 μl aqueous solution were mixed and the resultant mixture was used as the test sample. The test sample was incubated at 37° C. […] The analysis samples were stored frozen at −20° C. until it was time to take readings using them. […] Then, the concentration of Peptide 1 in each sample was analyzed using liquid chromatography. The concentrations were calculated from the area values obtained using the external standard method. […]
The residual rate was calculated using the following formula: Residual rate=(the concentration of peptide after 7 days' incubation/the concentration of peptide in the test samples immediately after they were prepared)×100 [Formula 1]

[3] = 100 nM, mean ± standard error (n = 14-19)

HPPPPPFQ (peptide of PRP4) [Peptide 3]
Rate of cell-death suppression (%) [1, 3]: 27.2 ± 6.6 %

QQRPP (Peptide of PRP4) [Peptide 4]
Rate of cell-death suppression (%) [1, 3]: 31.1 ± 7.8 %

IGF-1
Cell lethality (%) (SH-SY5Y cells): 88.1 ± 8.3 %

HPPPPPFQNQQ (peptide of PRP4) [Peptide 2]
Rate of cell-death suppression (%) [1, 3]: 26.4 ± 4.8 %

HPPPPPFQNQQRPP [Peptide 1, HPPPPPFQNQQRPP]
stability in a vitreous humor solution (in words) ([2]; 7 days at 37° C.): stable in a vitreous humor solution
remaining at 168 h ([2]; vitreous humor solution (filtered, from rabbit eyeballs), after 7 days' incubation at 37° C. in rabbit vitreous humor solution, read-out: Residual ratio (%)): 98.4%

B1: Peptide 5: Commercially available PRP4 (Abnova, H0011272-Q01) having the sequence of SEQ ID NO: 2 (protein)
chain: QSTDNDVNYEDFTFTIPDVEDSSQRPDQGPQRPPPEGLLPRPPGDSGNQDDGPQQRPPKPGGHHRHPPPPPFQNQQRPPQRGHRQLSLPRFPSVSLQEAS
modifications: commercial recombinant protein, possible tag; Peptide of PRP4
Rate of cell-death suppression (%) ([1]; 10 nM, mean ± standard error (n = 12 to 18)): 66.2 ± 14.4 %
suppression of cell death from hypoxia (in words) ([1]; rat RGC, Test Example 4, 10 nM): significantly suppressed the cell death from hypoxia
